Data set [1] deals with HCVcc, genotype 2a, JFH-1 strain. The data set can be described thus: HCVcc assay, extracellular and intracellular viral RNA by quantitative real-time PCR. The data set is classed as cell-based, HCV. The settings on record: compound at 10 μM; Huh 7.5.1 cells; 48 h; vs DMSO. The procedure:
Huh 7.5.1 cells were seeded in 12-well plates (10^5 cells/well) and cultured overnight. HCVcc was used to infect the cells with the treatment of compounds at 10 μM. Virus-containing medium was removed after 4 h incubation and compound treatment was added back followed by incubation for additional 48 h. Intracellular and extracellular viral RNA levels were evaluated by quantitative real-time PCR. The results are illustrated in FIG. 1 and are the means of three replicates ±SEM. […] Cyclosporin A at 10 μM was used as positive control.
Cell Culture-derived HCV (HCVcc, genotype 2a, JFH-1 strain) system provides direct evidence of anti-HCV activity of the compounds.
Cell Culture-derived HCV (HCVcc, genotype 2a, JFH-1 strain) system provides direct evidence of anti-HCV activity of the compounds. Determination of both extracellular and intracellular HCV levels can help evaluate whether the compounds interfere early-stage or late-stage infection. […] Cyclosporin A was tested in parallel to serve as control compound targeting early-stage HCV infection. […] At the highest concentration, cyclosporin A caused approximately 4-log fold reduction in intracellular RNA copies, while the extracellular level reduced less than […]. On the contrary, NCGC00345021 led to only about 1-log fold decrease in intracellular RNA copies when causing 3-log fold reduction in extracellular RNA level. Clearly, when the concentration increased, NCGC00345021 led to a more dramatic reduction in extracellular RNA copies.

Another data set has as its system HCV replicon GT 2a. The data set is classed as cell-based. As to conditions: 10 μM; luciferase 48 h.
Data set [2] has as its system HCV-Luc. The experiment in a line: HCV-Luc infection assay. Type of data set: cell-based. The settings on record: Hepatitis C virus; Table 3; read-out: EC50.
A further data set relates to HCVsc, genotype 2a. Type of data set: cell-based, HCV. The settings on record: 10 μM; Huh 7.5.1 cells; luciferase 48 h.
The subject of a further data set is replicon GT 1a. The experiment in a line: Transient replicon assay, GT 1a. The data set is classed as cell-based, HCV. The settings on record: 10 μM; 48 h; Huh7.5.1 cells.
For a further data set, the system named is HCVpp GT 1b. Type of data set: cell-based, HCV. The settings on record: 10 μM; Huh 7.5.1 cells.
Data set [3] can be described thus: ATPLite cytotoxicity assay. The settings on record: human, Huh7.5.1 cells. The source says:
(§1) EC50 was generated using the HCV-Luc infection assay and IC50 using the ATPLite assay.
(§2) EC50 was generated using the HCV-Luc infection assay and TC50 using the ATPLite assay.
(§3) The cytotoxicity of the compounds was further evaluated in HepG2 cells and primary human hepatocytes.

The test system of another data set is HCV replicon GT 1b. Type of data set: cell-based. The settings on record: 10 μM; luciferase 48 h.
Another data set relates to HCVpp GT 1a. The data set is classed as cell-based, HCV. The settings on record: 10 μM; Huh 7.5.1 cells.
The next data set has as its system Huh7.5.1 cells. The data set can be described thus: in vitro. The settings on record: human.
Text: as §1, §2, §3

Data set [4] is described as follows: ATPlite assay run in parallel with the combination HCV-Luc assay. Type of data set: cell-based. The settings on record: (S)-CCZ combined with anti-HCV drugs. The protocol: Combination of ribavirin and peginterferon α (IFN-α) has been the standard of care to treat chronic HCV infection for many years. Direct-acting antivirals, such as telaprevir and daclatasvir, were recently approved for therapy of hepatitis C. The combination of (S)-CCZ with these different classes of anti-HCV drugs is described in this example. HCV-Luc assay in parallel with ATPlite assay was performed in the presence of various concentrations of (S)-CCZ in combination with various concentrations of each drug. Using the MacSynergy II program based on Bliss independence model, three-dimensional surface plots were generated and log volume of synergism was calculated for each combination. The results were also analyzed with the CalcuSyn program, in which the combination indices were calculated.

In a further data set the test system is HCV genotype 1b. Type of data set: in vivo, mice.
For another data set, the system named is HCV genotype 2a. The data set is classed as in vivo, mice.
The subject of data set [5] is HCV-Luc. The data set can be described thus: HCV-Luc assay of (S)-CCZ combinations, MacSynergy II and CalcuSyn analysis. Type of data set: cell-based. The procedure:
Direct-acting antivirals, such as telaprevir and daclatasvir, were recently approved for therapy of hepatitis C. […] Using the MacSynergy II program based on Bliss independence model, three-dimensional surface plots were generated and log volume of synergism was calculated for each combination. The results were also analyzed with the CalcuSyn program, in which the combination indices were calculated.

For the molecule `CN1CCN(C(c2ccccc2)c2ccc(Cl)cc2)CC1` (racemic) [racemic CCZ, 1-((4-Chlorophenyl)(phenyl)methyl)-4-methylpiperazine, reference compound], in data set [1], the “extracellular viral RNA level” value is on record as “reduced” and the “intracellular viral RNA level” value was “reduced”. For the same molecule, the “inhibitory effect in replicon GT 2a cell line” value with HCV replicon GT 2a is recorded as “did not show much inhibitory effect”. For the same molecule, in the data set with HCV-Luc [2], the EC50 was found to be 44 ± 11 nM. The “inhibitory activity in the HCVsc infection level” value in the data set on HCVsc, genotype 2a is listed as “significant inhibitory activities”. The “inhibition in transient replicon GT 1a” value in the data set with replicon GT 1a is recorded as “no inhibition was observed”. In addition, in the data set with HCVpp GT 1b, the “inhibitory activity in HCVpp GT 1b” value was “None of racemic, (R) and (S)-CCZ showed any inhibitory activities”. Moreover, the CC50 in [3] came out at 49.8 ± 17.2 µM. Further, in the data set with HCV replicon GT 1b, the “inhibitory effect in replicon GT 1b cell line” value was “did not show much inhibitory effect”. For the same molecule, the “inhibitory activity in HCVpp GT 1a” value with HCVpp GT 1a is “None of racemic, (R) and (S)-CCZ showed any inhibitory activities”.

With `CN1CCN([C@H](c2ccccc2)c2ccc(Cl)cc2)CC1` [(R)-CCZ, (R)-1-((4-Chlorophenyl)(phenyl)methyl)-4-methylpiperazine], in [1], the “extracellular viral RNA level” value is reported as “reduced” and the “intracellular viral RNA level” value is “reduced”. In addition, in the data set with HCV replicon GT 2a, the “inhibitory effect in replicon GT 2a cell line” value is recorded as “did not show much inhibitory effect”. Also, the EC50 with HCV-Luc [2] stood at 20 ± 5 nM. For the same molecule, in the data set with HCVsc, genotype 2a, the “inhibitory activity in the HCVsc infection level” value is reported as “significant inhibitory activities”. Besides, the “inhibition in transient replicon GT 1a” value in the data set on replicon GT 1a is listed as “no inhibition was observed”. Further, in the data set with HCVpp GT 1b, the “inhibitory activity in HCVpp GT 1b” value is “None of racemic, (R) and (S)-CCZ showed any inhibitory activities”. Besides, in the data set on Huh7.5.1 cells, the midpoint of cytotoxicity, the CC50, lay at 37.5 ± 4.2 µM. The “inhibitory effect in replicon GT 1b cell line” value in the data set with HCV replicon GT 1b was “did not show much inhibitory effect”. Also, the “inhibitory activity in HCVpp GT 1a” value with HCVpp GT 1a was “None of racemic, (R) and (S)-CCZ showed any inhibitory activities”.

As to `CN1CCN([C@@H](c2ccccc2)c2ccc(Cl)cc2)CC1` [(S)-CCZ, (S)-1-((4-Chlorophenyl)(phenyl)methyl)-4-methylpiperazine], in data set [1], the “extracellular viral RNA level” value was “reduced” and the “intracellular viral RNA level” value is reported as “reduced”. Also, the “inhibitory effect in replicon GT 2a cell line” value in the data set with HCV replicon GT 2a was “did not show much inhibitory effect”. The “cytotoxicity of the combinations” value in [4] is on record as “without significant cytotoxicity”. Moreover, the “decrease of genotype 1b virus titer” value in the data set with HCV genotype 1b (2 mg/kg daily) was “approximately 1 log”. Further, in the data set with HCV genotype 1b (50 mg/kg and 10 mg/kg daily, 4 weeks of treatment), the “reduction of HCV titer from pretreatment baseline, genotype 1b” value was 2 log. Also, in the data set with HCV genotype 1b (during treatment), the “HCV titers during the treatment period (drug resistance), genotype 1b” value was “continued to decline during the treatment period without rebound”. Further, the “reduction of HCV titer from pretreatment baseline, genotype 2a” value with HCV genotype 2a (50 mg/kg and 10 mg/kg daily, 6-week treatment) came out at 1.5 log. Moreover, the “HCV titers during the treatment period (drug resistance), genotype 2a” value with HCV genotype 2a (during treatment) is on record as “continued to decline during the treatment period without rebound”. The EC50 in the data set with HCV-Luc [2] came out at 24 ± 9 nM. Further, the “inhibitory activity in the HCVsc infection level” value in the data set with HCVsc, genotype 2a is reported as “significant inhibitory activities”. Besides, the “inhibition in transient replicon GT 1a” value in the data set on replicon GT 1a is reported as “no inhibition was observed”. Further, the “inhibitory activity in HCVpp GT 1b” value in the data set with HCVpp GT 1b was “None of racemic, (R) and (S)-CCZ showed any inhibitory activities”. Besides, the CC50 in the data set with Huh7.5.1 cells was 33.4 ± 2.4 µM. The “inhibitory effect in replicon GT 1b cell line” value in the data set on HCV replicon GT 1b is “did not show much inhibitory effect”. Also, the “inhibitory activity in HCVpp GT 1a” value in the data set on HCVpp GT 1a was “None of racemic, (R) and (S)-CCZ showed any inhibitory activities”.

Take IFN-α: the “CalcuSyn CI value” in the data set on HCV-Luc [5] ((S)-CCZ in combination with the drug named) is 0.609 ± 0.128. The “antiviral effect of (S)-CCZ with the drug named” value in the data set with HCV-Luc [5] (combination with (S)-CCZ) is listed as “highly synergistic”.

These data come from patent US20170001988A1, “PIPERIDINE AND PIPERAZINE DERIVATIVES AND THEIR USE IN TREATING VIRAL INFECTIONS AND CANCER” (THE UNITED STATES OF AMERICA, AS REPRESENTED BY THE …, priority 2013, published 2017).
